The values below are quoted from earlier work in patent US11612566B2, “Lamotrigine oral liquid suspension and use thereof” (OWP Pharmaceuticals, Inc., priority 2019, dated 2023).

The conditions of this data set: BCS class II molecule; poorly soluble in water.

As for `Nc1nnc(-c2cccc(Cl)c2Cl)c(N)n1` [Lamotrigine, 6-(2,3-dichlorophenyl)-1,2,4-triazine-3,5-diamine], the solubility result is “low”.
